Results: ChEMBL document CHEMBL5352419, “Design, synthesis, and biological evaluation of tetrahydroquinoline amphiphiles as membrane-targeting antimicrobials against pathogenic bacteria and fungi” (Eur J Med Chem, 2022)
Values after ≈ are worked out from the molar mass of the structure shown. Active and inactive are the calls of the source. The calls are words filed in the database; no cut-off is given here.

Legend:
Candida albicans [1] = experiment: Antimicrobial activity against Candida albicans ATCC10231 assessed as fungal growth inhibition incubated for 48 hrs by Sabouraud Dextrose broth based dilution assay; type: functional
Staphylococcus aureus [2] = experiment: Antimicrobial activity against Staphylococcus aureus ATCC29213 assessed as bacterial growth inhibition incubated for 24 hrs by Muller Hinton broth based dilution assay; type: functional
Staphylococcus aureus [3] = experiment: Antimicrobial activity against methicillin-resistant Staphylococcus aureus N315 assessed as bacterial growth inhibition incubated for 24 hrs by Muller Hinton broth based dilution assay; type: functional
Escherichia coli [4] = experiment: Antimicrobial activity against Escherichia coli ATCC25922 assessed as bacterial growth inhibition incubated for 24 hrs by Muller Hinton broth based dilution assay; type: functional
Pseudomonas aeruginosa = experiment: Antimicrobial activity against Pseudomonas aeruginosa ATCC9027 assessed as bacterial growth inhibition incubated for 24 hrs by Muller Hinton broth based dilution assay; type: functional
Klebsiella pneumoniae = experiment: Antimicrobial activity against Klebsiella pneumoniae ATCC10031 assessed as bacterial growth inhibition incubated for 24 hrs by Muller Hinton broth based dilution assay; type: functional
Staphylococcus aureus [5] = experiment: Antimicrobial activity against methicillin-resistant Staphylococcus aureus NCTC10442 assessed as bacterial growth inhibition incubated for 24 hrs in presence of 3220 ug/mL Na+ by Muller Hinton broth based dilution assay; type: functional
Acinetobacter baumannii [6] = experiment: Antimicrobial activity against Acinetobacter baumannii ATCC17978 assessed as bacterial growth inhibition incubated for 24 hrs in presence of 3220 ug/mL Na+ by Muller Hinton broth based dilution assay; type: functional
Candida albicans [7] = experiment: Antimicrobial activity against Candida albicans CMCC98001 assessed as fungal growth inhibition incubated for 48 hrs in presence of 3220 ug/mL Na+ by Sabouraud Dextrose broth based dilution assay; type: functional
Escherichia coli [8] = experiment: Antimicrobial activity against Escherichia coli ATCC25922 assessed as bacterial growth inhibition incubated for 24 hrs in presence of 175.5 ug/mL K+ by Muller Hinton broth based dilution assay; type: functional
Acinetobacter baumannii [9] = experiment: Antimicrobial activity against Acinetobacter baumannii ATCC17978 assessed as bacterial growth inhibition incubated for 24 hrs in presence of 175.5 ug/mL K+ by Muller Hinton broth based dilution assay; type: functional
Staphylococcus aureus [10] = experiment: Antimicrobial activity against methicillin-resistant Staphylococcus aureus NCTC10442 assessed as bacterial growth inhibition incubated for 24 hrs in presence of 100 ug/mL Ca2+ by Muller Hinton broth based dilution assay; type: functional
Candida albicans [11] = experiment: Antimicrobial activity against Candida albicans CMCC98001 assessed as fungal growth inhibition incubated for 48 hrs in presence of 100 ug/mL Ca2+ by Sabouraud Dextrose broth based dilution assay; type: functional
Staphylococcus aureus [12] = experiment: Antimicrobial activity against Staphylococcus aureus ATCC29213 assessed as bacterial growth inhibition incubated for 24 hrs in presence of 24.3 ug/mL Mg2+ by Muller Hinton broth based dilution assay; type: functional
Acinetobacter baumannii [13] = experiment: Antimicrobial activity against Acinetobacter baumannii ATCC17978 assessed as bacterial growth inhibition incubated for 24 hrs in presence of 24.3 ug/mL Mg2+ by Muller Hinton broth based dilution assay; type: functional
Staphylococcus aureus [14] = experiment: Antimicrobial activity against Staphylococcus aureus ATCC29213 assessed as log reduction in microbial load at 8 times of MIC measured at 0.5 hr by time-kill kinetics assay; type: functional
Staphylococcus aureus [15] = experiment: Antimicrobial activity against Staphylococcus aureus ATCC29213 assessed as log reduction in microbial load at 4 times of MIC measured at 1 hr by time-kill kinetics assay; type: functional
Staphylococcus aureus [16] = experiment: Induction of drug resistance in Staphylococcus aureus ATCC29213 assessed as change in MIC at sub-inhibitory concentration incubated for 21 to 22 passages; type: functional
Escherichia coli [17] = experiment: Induction of drug resistance in Escherichia coli ATCC25922 assessed as change in MIC at sub-inhibitory concentration incubated for 21 to 22 passages; type: functional
Cell membrane [18] = experiment: Disruption of membrane integrity in Escherichia coli ATCC25922 assessed as increase in fluorescence intensity at 1 to 8 times of MIC measured for 1 hr by SYTOX green dye based fluorescence analysis
Cell membrane [19] = experiment: Disruption of membrane integrity in Escherichia coli ATCC25922 assessed as red fluorescence at 8 times of MIC incubated for 2 hrs under dark condition by SYTO 9 and PI staining based laser confocal microscopy analysis
Cell membrane [20] = experiment: Disruption of membrane integrity in Candida albicans ATCC10231 assessed as red fluorescence at 8 times of MIC incubated for 2 hrs under dark condition by SYTO 9 and PI staining based laser confocal microscopy analysis
Cell membrane [21] = experiment: Induction of outer membrane permeabilization in Escherichia coli ATCC25922 assessed as increase in fluorescence intensity at 1 to 8 times of MIC measured for 1 hrs by NPN uptake assay
Cell membrane [22] = experiment: Disruption of outer membrane integrity in Acinetobacter baumannii ATCC17978
Escherichia coli [23] = experiment: Antibiofilm activity against Escherichia coli ATCC25922 assessed as inhibition of biofilm formation at 0.78 ug/mL incubated for 24 hrs by crystal violet staining based analysis relative to control; type: functional
Escherichia coli [24] = experiment: Antibiofilm activity against Escherichia coli ATCC25922 assessed as inhibition of biofilm formation at 3.125 ug/mL incubated for 24 hrs by crystal violet staining based analysis relative to control; type: functional
Staphylococcus aureus [25] = experiment: Disruption of preformed biofilm in Staphylococcus aureus ATCC29213 assessed as residual preformed biofilm at 0.78 ug/mL incubated for 24 hrs by crystal violet staining based analysis relative to control; type: functional; conditions: dose 0.78 µg/ml
Escherichia coli [26] = experiment: Disruption of preformed biofilm in Escherichia coli ATCC25922 assessed as residual preformed biofilm at 3.125 ug/mL incubated for 24 hrs by crystal violet staining based analysis relative to control; type: functional; conditions: dose 3.125 µg/ml
Escherichia coli [27] = experiment: Disruption of preformed biofilm in Escherichia coli ATCC25922 assessed as residual preformed biofilm at 12.5 ug/mL incubated for 24 hrs by crystal violet staining based analysis relative to control; type: functional; conditions: dose 12.5 µg/ml
[28] = Cytotoxicity against mouse J774.A1 cells assessed as viable cells at 6.25 ug/mL incubated for 24 hrs by CCK-8 assay relative to control; type: toxicity, cell-based; conditions: at 6.25 µg/mL, read-out: Activity
[29] = Cytotoxicity against mouse J774.A1 cells assessed as viable cells at 12.5 ug/mL incubated for 24 hrs by CCK-8 assay relative to control; type: toxicity, cell-based; conditions: at 12.5 µg/mL, read-out: Activity
[30] = Cytotoxicity against mouse J774.A1 cells assessed as viable cells at 25 ug/mL incubated for 24 hrs by CCK-8 assay relative to control; type: toxicity, cell-based; conditions: at 25 µg/mL, read-out: Activity
[31] = Cytotoxicity against mouse NCTC clone 929 cells assessed as viable cells at 12.5 ug/mL incubated for 24 hrs by CCK-8 assay relative to control; type: toxicity, cell-based; conditions: NCTC clone 929 (L929) cells, at 12.5 µg/mL, read-out: Activity
[32] = Cytotoxicity against mouse corneal epithelial cells assessed as viable cells at 12.5 ug/mL incubated for 24 hrs by CCK-8 assay relative to control; type: toxicity, cell-based, Corneal epithelial cell; conditions: at 12.5 µg/mL, read-out: Activity
[33] = Cytotoxicity against mouse corneal epithelial cells assessed as viable cells at 25 ug/mL incubated for 24 hrs by CCK-8 assay relative to control; type: toxicity, cell-based, Corneal epithelial cell; conditions: at 25 µg/mL, read-out: Activity

SMILES	MIC (Candida albicans [1]) [µg/mL]	MIC (Staphylococcus aureus [2]) [µg/mL]	MIC (Staphylococcus aureus [3]) [µg/mL]	MIC (Escherichia coli [4]) [µg/mL]	MIC (Pseudomonas aeruginosa) [µg/mL]	MIC (Klebsiella pneumoniae) [µg/mL]	MIC (Staphylococcus aureus [5]) [µg/mL]	MIC (Acinetobacter baumannii [6]) [µg/mL]	MIC (Candida albicans [7]) [µg/mL]	MIC (Escherichia coli [8]) [µg/mL]	MIC (Acinetobacter baumannii [9]) [µg/mL]	MIC (Staphylococcus aureus [10]) [µg/mL]	MIC (Candida albicans [11]) [µg/mL]	MIC (Staphylococcus aureus [12]) [µg/mL]	MIC (Acinetobacter baumannii [13]) [µg/mL]	log(activity) (Staphylococcus aureus [14])	log(activity) (Staphylococcus aureus [15])	Activity (Staphylococcus aureus [16])	Activity (Escherichia coli [17])	Activity (Cell membrane [18])	other results
CC(C)=CCN1CCCc2cc(OCCCCCCCCNC(=N)N)ccc21	0.78 (≈ 2.02 µM)	1.56 (≈ 4.04 µM)	0.78 (≈ 2.02 µM)	3.12 (≈ 8.08 µM)	6.25 (≈ 16.2 µM)	3.12 (≈ 8.08 µM)	0.78	3.12	0.78	3.12	3.12	0.78	1.56	0.78	3.12	>3	>3	inactive	inactive	Dose-Dependent Effect	Activity (Cell membrane [19]): Active; Activity (Cell membrane [20]): Active; Activity (Cell membrane [21]): Active; Activity (Cell membrane [22]): Active; inhibition at 0.78 µg/mL (Escherichia coli [23]): 32.2%; inhibition at 3.125 µg/mL (Escherichia coli [24]): 92.8%; Activity (Staphylococcus aureus [25]): 70.52%; Activity (Escherichia coli [26]): 47.23%; Activity (Escherichia coli [27]): 6.85%; viability at 24 h, 6.25 ug/mL [28]: 96.3%; viability at 24 h, 12.5 ug/mL [29]: 90%; viability at 24 h, 25 ug/mL [30]: 58.8%; viability at 24 h, 12.5 ug/mL [31]: 89.3%; viability at 24 h, 12.5 ug/mL [32]: 87.6%; viability at 24 h, 25 ug/mL [33]: 76.9%
CCCCCCCCCN1CCCc2cc(OCCCCNC(=N)N)ccc21	1.56 (≈ 4.01 µM)	1.56 (≈ 4.01 µM)	0.78 (≈ 2.01 µM)	1.56 (≈ 4.01 µM)	6.25 (≈ 16.1 µM)	1.56 (≈ 4.01 µM)	0.78	3.12	0.78	1.56	3.12	0.78	1.56	0.78	3.12	>3	>3	inactive	inactive	Dose-Dependent Effect	Activity (Cell membrane [19]): Active; Activity (Cell membrane [20]): Active; Activity (Cell membrane [21]): Active; Activity (Cell membrane [22]): Active; inhibition at 0.78 µg/mL (Escherichia coli [23]): 49.9%; inhibition at 3.125 µg/mL (Escherichia coli [24]): 96.2%; Activity (Staphylococcus aureus [25]): 71.31%; Activity (Escherichia coli [26]): 32.54%; Activity (Escherichia coli [27]): 8.81%; viability at 24 h, 6.25 ug/mL [28]: 97.4%; viability at 24 h, 12.5 ug/mL [29]: 91.9%; viability at 24 h, 25 ug/mL [30]: 72.6%; viability at 24 h, 12.5 ug/mL [31]: 89.4%; viability at 24 h, 12.5 ug/mL [32]: 78%; viability at 24 h, 25 ug/mL [33]: 57.7%
